According to PubChem BioAssay (NCI):
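A five-concentration, 48-hour dose response in 96-well plates underlies each endpoint, interpolated linearly between surrounding concentrations. GI50: concentration for 50% inhibition of growth. The concentration for full growth arrest is given as TGI.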

Legend:
Experiment in all cases: growth of human tumour cells (NCI), 48 h
NCI/ADR-RES ovarian = test system: NCI/ADR-RES ovarian
SN12C renal = test system: SN12C renal
COLO 205 colon = test system: COLO 205 colon
SF-539 CNS = test system: SF-539 CNS
MOLT-4 leukemia = test system: MOLT-4 leukemia
EKVX NSCLC = test system: EKVX NSCLC
SK-MEL-5 melanoma = test system: SK-MEL-5 melanoma
SF-268 CNS = test system: SF-268 CNS
UO-31 renal = test system: UO-31 renal
OVCAR-8 ovarian = test system: OVCAR-8 ovarian
CAKI-1 renal = test system: CAKI-1 renal
IGROV1 ovarian = test system: IGROV1 ovarian
OVCAR-5 ovarian = test system: OVCAR-5 ovarian
DU-145 prostate = test system: DU-145 prostate
M14 melanoma = test system: M14 melanoma
SW-620 colon = test system: SW-620 colon
NCI-H226 lung = test system: NCI-H226 lung
SNB-75 CNS = test system: SNB-75 CNS
A549 NSCLC = test system: A549 NSCLC
TK-10 renal = test system: TK-10 renal
MCF7 breast = test system: MCF7 breast
NCI-H460 lung = test system: NCI-H460 lung
HCC-2998 colon = test system: HCC-2998 colon
MDA-N = test system: MDA-N
CCRF-CEM leukemia = test system: CCRF-CEM leukemia
K-562 leukemia = test system: K-562 leukemia
UACC-257 melanoma = test system: UACC-257 melanoma
NCI-H23 lung = test system: NCI-H23 lung
UACC-62 melanoma = test system: UACC-62 melanoma
OVCAR-4 ovarian = test system: OVCAR-4 ovarian
SF-295 CNS = test system: SF-295 CNS
HCT-116 colon = test system: HCT-116 colon
RXF 393 renal = test system: RXF 393 renal
U251 CNS = test system: U251 CNS
SK-OV-3 ovarian = test system: SK-OV-3 ovarian
MALME-3M melanoma = test system: MALME-3M melanoma
SK-MEL-28 melanoma = test system: SK-MEL-28 melanoma
HT29 colon = test system: HT29 colon
ACHN renal = test system: ACHN renal
SR leukemia = test system: SR leukemia
HCT-15 colon = test system: HCT-15 colon
HOP-62 NSCLC = test system: HOP-62 NSCLC
PC-3 prostate = test system: PC-3 prostate
NCI-H522 lung = test system: NCI-H522 lung
HL-60(TB) leukemia = test system: HL-60(TB) leukemia
OVCAR-3 ovarian = test system: OVCAR-3 ovarian
SNB-19 CNS = test system: SNB-19 CNS
786-0 renal = test system: 786-0 renal
RPMI-8226 leukemia = test system: RPMI-8226 leukemia
BT-549 breast = test system: BT-549 breast
LOX IMVI melanoma = test system: LOX IMVI melanoma
SK-MEL-2 melanoma = test system: SK-MEL-2 melanoma
MDA-MB-435 = test system: MDA-MB-435
MDA-MB-231 breast = test system: MDA-MB-231 breast
A498 renal = test system: A498 renal
T-47D breast = test system: T-47D breast
HS 578T breast = test system: HS 578T breast
KM12 colon = test system: KM12 colon
HOP-92 NSCLC = test system: HOP-92 NSCLC

Q: What does the source list for `N#CCCC(CC#N)N1CCN(C(CC#N)CCC#N)CC1` (stereo unspecified)?
A: TGI (NCI/ADR-RES ovarian): > 100 µM; TGI (SN12C renal): > 100 µM; TGI (COLO 205 colon): > 100 µM; TGI (SF-539 CNS): > 100 µM; TGI (MOLT-4 leukemia): > 100 µM; TGI (EKVX NSCLC): > 100 µM; TGI (SK-MEL-5 melanoma): > 100 µM; TGI (SF-268 CNS): > 100 µM; TGI (UO-31 renal): > 100 µM; TGI (OVCAR-8 ovarian): > 100 µM; TGI (CAKI-1 renal): > 100 µM; TGI (IGROV1 ovarian): > 100 µM; TGI (OVCAR-5 ovarian): > 100 µM; TGI (DU-145 prostate): > 100 µM; TGI (M14 melanoma): > 100 µM; TGI (SW-620 colon): > 100 µM; TGI (NCI-H226 lung): > 100 µM; TGI (SNB-75 CNS): > 100 µM; TGI (A549 NSCLC): > 100 µM; TGI (TK-10 renal): > 100 µM; TGI (MCF7 breast): > 100 µM; TGI (NCI-H460 lung): > 100 µM; TGI (HCC-2998 colon): > 100 µM; TGI (MDA-N): > 100 µM; TGI (CCRF-CEM leukemia): > 100 µM; TGI (K-562 leukemia): > 100 µM; TGI (UACC-257 melanoma): > 100 µM; TGI (NCI-H23 lung): > 100 µM; TGI (UACC-62 melanoma): > 100 µM; TGI (OVCAR-4 ovarian): > 100 µM; TGI (SF-295 CNS): > 100 µM; TGI (HCT-116 colon): > 100 µM; TGI (RXF 393 renal): > 100 µM; TGI (U251 CNS): > 100 µM; TGI (SK-OV-3 ovarian): > 100 µM; TGI (MALME-3M melanoma): > 100 µM; TGI (SK-MEL-28 melanoma): > 100 µM; TGI (HT29 colon): > 100 µM; TGI (ACHN renal): > 100 µM; TGI (SR leukemia): > 100 µM; TGI (HCT-15 colon): > 100 µM; TGI (HOP-62 NSCLC): > 100 µM; TGI (PC-3 prostate): > 100 µM; TGI (NCI-H522 lung): > 100 µM; TGI (HL-60(TB) leukemia): > 100 µM; TGI (OVCAR-3 ovarian): > 100 µM; TGI (SNB-19 CNS): > 100 µM; TGI (786-0 renal): > 100 µM; TGI (RPMI-8226 leukemia): > 100 µM; TGI (BT-549 breast): > 100 µM

Q: What does the source list for `Cc1cc(C)c(CNC(=O)c2cc(-c3ccc(CN4CCOCC4)cc3)cc3c2cnn3C2CCCC2)c(=O)[nH]1`?
A: GI50 (NCI/ADR-RES ovarian): 15.1 µM; TGI (NCI/ADR-RES ovarian): 42.5 µM; GI50 (SN12C renal): 19.3 µM; TGI (SN12C renal): 46.6 µM; GI50 (COLO 205 colon): 14.7 µM; TGI (COLO 205 colon): 34 µM; GI50 (SF-539 CNS): 16.1 µM; TGI (SF-539 CNS): 34.4 µM; GI50 (MOLT-4 leukemia): 17.5 µM; TGI (MOLT-4 leukemia): > 100 µM; GI50 (LOX IMVI melanoma): 15.3 µM; TGI (LOX IMVI melanoma): 34.2 µM; GI50 (EKVX NSCLC): 11.8 µM; TGI (EKVX NSCLC): 28.2 µM; GI50 (SK-MEL-5 melanoma): 13.7 µM; TGI (SK-MEL-5 melanoma): 27.3 µM; GI50 (SK-MEL-2 melanoma): 17.8 µM; TGI (SK-MEL-2 melanoma): 35.4 µM; GI50 (SF-268 CNS): 13.9 µM; TGI (SF-268 CNS): 43.8 µM; GI50 (UO-31 renal): 8.8 µM; TGI (UO-31 renal): 26.6 µM; GI50 (OVCAR-8 ovarian): 17.3 µM; TGI (OVCAR-8 ovarian): 57.9 µM; GI50 (CAKI-1 renal): 16.1 µM; TGI (CAKI-1 renal): 42.2 µM; GI50 (IGROV1 ovarian): 17.6 µM; TGI (IGROV1 ovarian): 67.8 µM; GI50 (MDA-MB-435): 15.9 µM; TGI (MDA-MB-435): 35 µM; GI50 (OVCAR-5 ovarian): 22.1 µM; TGI (OVCAR-5 ovarian): 63.5 µM; GI50 (DU-145 prostate): 21.5 µM; TGI (DU-145 prostate): 81 µM; GI50 (M14 melanoma): 18.8 µM; TGI (M14 melanoma): 43.1 µM; GI50 (MDA-MB-231 breast): 19.9 µM; TGI (MDA-MB-231 breast): 51.7 µM; GI50 (SW-620 colon): 25.3 µM; TGI (SW-620 colon): > 100 µM; GI50 (NCI-H226 lung): 17.5 µM; TGI (NCI-H226 lung): 37 µM; GI50 (SNB-75 CNS): 12.6 µM; TGI (SNB-75 CNS): 32.4 µM; GI50 (A549 NSCLC): 17.8 µM; TGI (A549 NSCLC): 41.6 µM; GI50 (TK-10 renal): 16.4 µM; TGI (TK-10 renal): 35.9 µM; GI50 (MCF7 breast): 10.8 µM; TGI (MCF7 breast): 28.8 µM; GI50 (NCI-H460 lung): 16.1 µM; TGI (NCI-H460 lung): 43 µM; GI50 (A498 renal): 15.5 µM; TGI (A498 renal): 34.6 µM; GI50 (HCC-2998 colon): 16.6 µM; TGI (HCC-2998 colon): 35.5 µM; GI50 (CCRF-CEM leukemia): 26.3 µM; TGI (CCRF-CEM leukemia): 97.5 µM; GI50 (K-562 leukemia): 21.4 µM; TGI (K-562 leukemia): > 100 µM; GI50 (UACC-257 melanoma): 21 µM; TGI (UACC-257 melanoma): 42.8 µM; GI50 (NCI-H23 lung): 18.5 µM; TGI (NCI-H23 lung): 47.8 µM; GI50 (UACC-62 melanoma): 17.8 µM; TGI (UACC-62 melanoma): 43.2 µM; GI50 (OVCAR-4 ovarian): 21.3 µM; TGI (OVCAR-4 ovarian): 91.6 µM; GI50 (SF-295 CNS): 16.6 µM; TGI (SF-295 CNS): 36.5 µM; GI50 (T-47D breast): 12.9 µM; TGI (T-47D breast): 50.4 µM; GI50 (HCT-116 colon): 18.2 µM; TGI (HCT-116 colon): 50.2 µM; GI50 (RXF 393 renal): 14.6 µM; TGI (RXF 393 renal): 32.6 µM; GI50 (U251 CNS): 15.2 µM; TGI (U251 CNS): 31.7 µM; GI50 (SK-OV-3 ovarian): 20.1 µM; TGI (SK-OV-3 ovarian): 44.5 µM; GI50 (MALME-3M melanoma): 16.7 µM; TGI (MALME-3M melanoma): 34.1 µM; GI50 (SK-MEL-28 melanoma): 15.7 µM; TGI (SK-MEL-28 melanoma): 32.4 µM; GI50 (HT29 colon): 11.8 µM; TGI (HT29 colon): 27.1 µM; GI50 (HS 578T breast): 19.1 µM; TGI (HS 578T breast): 64 µM; GI50 (ACHN renal): 15.1 µM; TGI (ACHN renal): 34.6 µM; GI50 (SR leukemia): 22.4 µM; TGI (SR leukemia): 65.5 µM; GI50 (HCT-15 colon): 10.2 µM; TGI (HCT-15 colon): 25.9 µM; GI50 (KM12 colon): 18.6 µM; TGI (KM12 colon): 49 µM; GI50 (HOP-92 NSCLC): 10.2 µM; TGI (HOP-92 NSCLC): 27.2 µM; GI50 (HOP-62 NSCLC): 18 µM; TGI (HOP-62 NSCLC): 39.3 µM; GI50 (PC-3 prostate): 17.9 µM; TGI (PC-3 prostate): 54.6 µM; GI50 (NCI-H522 lung): 16.2 µM; TGI (NCI-H522 lung): 30.4 µM; GI50 (HL-60(TB) leukemia): 16.5 µM; TGI (HL-60(TB) leukemia): 55.2 µM; GI50 (OVCAR-3 ovarian): 13.4 µM; TGI (OVCAR-3 ovarian): 30.9 µM; GI50 (SNB-19 CNS): 24.7 µM; TGI (SNB-19 CNS): 77.1 µM; GI50 (786-0 renal): 17.6 µM; TGI (786-0 renal): 42.4 µM; GI50 (RPMI-8226 leukemia): 13.7 µM; TGI (RPMI-8226 leukemia): 50.7 µM; GI50 (BT-549 breast): 17.1 µM; TGI (BT-549 breast): 41.7 µM
